Results taken from US20230118688A1, “1H-PYRAZOLO[4,3-d]PYRIMIDINE COMPOUNDS AS TOLL-LIKE RECEPTOR 7 (TLR7) AGONISTS” (BRISTOL-MYERS SQUIBB COMPANY, priority 2020, published 2023).
pEC50: −log10 of the molar value.

What was measured:
human TLR7 = molecular target: T1, human TLR7 (Homo sapiens, UniProt Q9NYK1); assay: Human TLR7 agonist activity reporter assay (HEK-Blue TLR7 cells, SEAP reporter); format: cell-based; conditions: 18 h treatment, average where assay repeated, Table A1, read-out: hTLR7 Agonism EC50
T1 construct: host or cells: HEK-Blue TLR7 cells (engineered human embryonic kidney cells)
T1 sequence (Q9NYK1 27-1049): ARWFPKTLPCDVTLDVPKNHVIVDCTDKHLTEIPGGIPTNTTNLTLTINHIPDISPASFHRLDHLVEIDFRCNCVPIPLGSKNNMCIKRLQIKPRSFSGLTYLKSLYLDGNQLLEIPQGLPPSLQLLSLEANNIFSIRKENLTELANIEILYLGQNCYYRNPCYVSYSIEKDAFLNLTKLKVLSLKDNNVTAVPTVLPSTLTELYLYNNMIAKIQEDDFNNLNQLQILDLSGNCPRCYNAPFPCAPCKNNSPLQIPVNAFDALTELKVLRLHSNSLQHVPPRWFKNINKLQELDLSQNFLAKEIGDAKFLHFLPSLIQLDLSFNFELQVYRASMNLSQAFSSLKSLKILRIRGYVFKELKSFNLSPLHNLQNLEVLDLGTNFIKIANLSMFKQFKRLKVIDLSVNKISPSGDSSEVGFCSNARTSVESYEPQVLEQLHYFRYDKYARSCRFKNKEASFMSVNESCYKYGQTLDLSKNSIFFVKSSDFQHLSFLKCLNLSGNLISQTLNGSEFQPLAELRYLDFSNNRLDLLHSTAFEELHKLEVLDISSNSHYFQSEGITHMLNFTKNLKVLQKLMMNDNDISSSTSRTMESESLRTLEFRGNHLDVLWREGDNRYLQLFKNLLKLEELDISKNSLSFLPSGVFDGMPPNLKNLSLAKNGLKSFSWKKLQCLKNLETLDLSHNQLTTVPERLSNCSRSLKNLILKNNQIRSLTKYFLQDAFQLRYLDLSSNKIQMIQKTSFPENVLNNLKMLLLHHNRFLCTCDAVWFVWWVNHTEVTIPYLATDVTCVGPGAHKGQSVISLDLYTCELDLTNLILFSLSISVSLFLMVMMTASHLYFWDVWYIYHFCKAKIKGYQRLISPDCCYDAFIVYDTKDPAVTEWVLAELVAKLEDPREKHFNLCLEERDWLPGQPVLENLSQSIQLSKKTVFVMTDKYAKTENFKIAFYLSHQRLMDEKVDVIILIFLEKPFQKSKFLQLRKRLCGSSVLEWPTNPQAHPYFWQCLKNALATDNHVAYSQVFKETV
Method: This procedure describes a method for assaying human TLR7 (hTLR7) agonist activity of the compounds disclosed in this specification.
HEK-Blue™ TLR7 cells were added to each well of a 384-well tissue-culture plate (15,000 cells per well) and incubated 16-18 h at 37° C., 5% CO2. Compounds (100 nl) were dispensed into wells containing the HEK-Blue™ TLR cells and the treated cells were incubated at 37° C., 5% CO2. After 18 h treatment ten microliters of freshly-prepared Quanti-Blue™ reagent (Invivogen) was added to each well, incubated for 30 min (37° C., 5% CO2) and SEAP levels measured using an Envision plate reader (OD=620 nm). The half maximal effective concentration values (EC50; compound concentration which induced a response halfway between the assay baseline and maximum) were calculated.

CD69 = assay: Induction of CD69 in human whole blood; format: cell-based; conditions: 17 h, CD69 surface staining, 100% set to 1 uM resiquimod, average where assay repeated, Table A1, read-out: hWB CD69 EC50
Method: The induction of Type I interferon (IFN) MX-1 genes and the B-cell activation marker CD69 are downstream events that occur upon activation of the TLR7 pathway. The following is a human whole blood assay that measures their induction in response to a TLR7 agonist.
Heparinized human whole blood was harvested from human subjects and treated with test TLR7 agonist compounds at 1 mM. The blood was diluted with RPMI 1640 media and Echo was used to predot 10 nL per well giving a final concentration of 1 uM (10 nL in 10 uL of blood). After mixing on a shaker for 30 sec, the plates were covered and placed in a 37° C. chamber for o/n=17 hrs. Fixing/lysis buffer was prepared (5×->1× in H2O, warm at 37° C.; Cat #BD 558049) and kept the perm buffer (on ice) for later use.
For surface markers staining (CD69): prepared surface Abs: 0.045 ul hCD14-FITC (ThermoFisher Cat #MHCD1401)+0.6 ul hCD19-ef450 (ThermoFisher Cat #48-0198-42)+1.5 ul hCD69-PE (cat #BD555531)+0.855 ul FACS buffer. Added 3 ul/well, spin1000 rpm for 1 min and mixed on shaker for 30 sec, put on ice for 30 mins. Stop stimulation after 30 minutes with 70 uL of prewarmed 1× fix/lysis buffer and use Feliex mate to resuspend (15 times, change tips for each plate) and incubate at 37C for 10 minutes.
Centrifuge at 2000 rpm for 5 minutes aspirate with HCS plate washer, mix on shaker for 30 sec and then wash with 70 uL in dPBS and pelleted 2×s (2000 rpm for 5 min) and 50 ul wash in FACS buffer pelleted 1×s(2000 rpm for 5 min). Mix on shaker for 30 sec. For Intracellular markers staining (MX-1): Add 50 ul of BD Perm buffer III and mix on shaker for 30 sec. Incubate on ice for 30 minutes (in the dark). Wash with 50 uL of FACS buffer 2× (spin @2300 rpm×5 min after perm) followed by mixing on shaker for 30 sec. Resuspended in 20 ul of FACS buffer containing MX1 antibody ( ) (4812)-Alexa 647: Novus Biologicals #NBP2-43704AF647) 20 ul FACS bf+0.8 ul hlgG+0.04 ul MX-1. Spin 1000 rpm for 1 min, mix on shaker for 30se and the samples were incubated at RT in the dark for 45 minutes followed by washing 2×FACS buffer (spin @2300 rpm×5 min after perm). Resuspend 20 ul (35 uL total per well) of FACS buffer and cover with foil and place in 4° C. to read the following day. Plates were read on iQuePlus. The results were loaded into toolset and IC50 curves are generated in curve master. The y-axis 100% is set to 1 uM of resiquimod.

pEC50 (human TLR7)	pEC50 (CD69)	SMILES
6.91	7.04	CCCCNc1nc(N)nc2cnn(Cc3cc(CN4CC(OC)C4)ccc3OC)c12 [Compound 105, N7-butyl-1-({2-methoxy-5-[(3-methoxyazetidin-1-yl)methyl]phenyl}methyl)-1H-pyrazolo[4,3-d]pyrimidine-5,7-diamine]
6.63	8.17	CCCCNc1nc(N)nc2cnn(Cc3cc(CN)ccc3OC)c12 [Compound 114, 1-{[5-(aminomethyl)-2-methoxyphenyl]methyl}-N7-butyl-1H-pyrazolo[4,3-d]pyrimidine-5,7-diamine]
6.48	6.69	CCCCNc1nc(N)nc2cnn(Cc3cc(CNC4CC(O)C4)ccc3OC)c12 (centres unmarked) [Compound 116, (1r,3r)-3-{[(3-{[5-amino-7-(butylamino)-1H-pyrazolo-[4,3-d]pyrimidin-1-yl]methyl}-4-methoxyphenyl)-methyl]amino}cyclobutan-1-ol]
6.25	6.81	CCCCNc1nc(N)nc2cnn(Cc3cc(CNC4CC45CC5)ccc3OC)c12 (centres unmarked) [Compound 117, N7-butyl-1-({2-methoxy-5-[({spiro[2.2]pentan-1-yl}amino)methyl]phenyl}methyl)-1H-pyrazolo[4,3-d]pyrimidine-5,7-diamine]
6.37	6.48	CCCCNc1nc(N)nc2cnn(Cc3cc(CN4CC5CC4CN5)ccc3OC)c12 (centres unmarked) [Compound 118, N7-butyl-1-{[5-({2,5-diaza-bicyclo[2.2.1]heptan-2-yl}methyl)-2-methoxy-phenyl]methyl}-1H-pyrazolo[4,3-d]pyrimidine-5,7-diamine]
6.28	6.64	CCCCNc1nc(N)nc2cnn(Cc3cc(CNC4(C)CCOCC4)ccc3OC)c12 [Compound 119, N7-butyl-1-[(2-methoxy-5-{[(4-methyloxan-4-yl)amino]methyl}phenyl)methyl]-1H-pyrazolo[4,3-d]pyrimidine-5,7-diamine]
6.26	6.54	CCCCNc1nc(N)nc2cnn(Cc3cc(CNC4CCCC4)ccc3OC)c12 [Compound 120]
6.94	7.24	CCCCNc1nc(N)nc2cnn(Cc3cc(CNC4CC4)ccc3OC)c12 [Compound 121]
6.26	6.65	CCCCNc1nc(N)nc2cnn(Cc3cc(CNC4COC4)ccc3OC)c12 [Compound 122, N7-butyl-1-[(2-methoxy-5-{[(oxetan-3-yl)amino]-methyl}phenyl)methyl]-1H-pyrazolo[4,3-d]pyrimidine-5,7-diamine]
6.80	7.05	CCCCNc1nc(N)nc2cnn(Cc3cc(CN4CC5COCC5C4)ccc3OC)c12 (centres unmarked) [Compound 123, N7-butyl-1-{[5-({hexa-hydro-1H-furo[3,4-c]pyrrol-5-yl}methyl)-2-methoxyphenyl]methyl}-1H-pyrazolo[4,3-d] pyrimidine-5,7-diamine]
6.72	7.06	CCCCNc1nc(N)nc2cnn(Cc3cc(CN4CC5(COC5)C4)ccc3OC)c12 [Compound 124, N7-butyl-1-{[2-methoxy-5-({2-oxa-6-azaspiro-[3.3]heptan-6-yl}-methyl)phenyl]methyl}-1H-pyrazolo[4,3-d]pyrimidine-5,7-diamine]
6.72	6.43	CCCCNc1nc(N)nc2cnn(Cc3cc(CN4CC5(C4)CN(C(=O)C4CCC4)C5)ccc3OC)c12 [Compound 125, N7-butyl-1-{[5-({6-cyclobutanecarbonyl-2,6-diazaspiro[3.3]heptan-2-yl}methyl)-2-methoxy-phenyl]methyl}-1H-pyrazolo[4,3-d]pyrimidine-5,7-diamine]
6.80	7.00	CCCCNc1nc(N)nc2cnn(Cc3cc(CN(C)CCNC)ccc3OC)c12 [Compound 126, N7-butyl-1-{[2-methoxy-5-({methyl[2-(methylamino)-ethyl]amino}methyl)phenyl]methyl}-1H-pyrazolo[4,3-d]pyrimidine-5,7-diamine]
6.97	7.32	CCCCNc1nc(N)nc2cnn(Cc3cc(CN4CCN(CCO)CC4)ccc3OC)c12 [Compound 127, 2-{4-[(3-{[5-amino-7-(butylamino)-1H-- pyrazolo[4,3-d]pyrimidin-1-yl]methyl}-4-methoxy-phenyl)methyl]piperazin-1-yl}ethan-1-ol]
7.25	7.90	CCCCNc1nc(N)nc2cnn(Cc3cc(CN(C)C(=O)CCN(C)C)ccc3OC)c12 [Compound 128, N-[(3-{[5-amino-7-(butyl-amino)-1H-pyrazolo[4,3-d]pyrimidin-1-yl]methyl}-4-methoxyphenyl)methyl]-3-(dimethylamino)-N-methylpropanamide]
6.23	7.22	CCCCNc1nc(N)nc2cnn(Cc3cc(CNCC4(N)CCC4)ccc3OC)c12 [Compound 129, 1-{[5-({[(1-aminocyclo-butyl)methyl]amino}methyl)-2-methoxyphenyl]methyl}-N7-butyl-1H-pyrazolo[4,3-d]pyrimidine-5,7-diamine]
7.30	6.29	CCCCNc1nc(N)nc2cnn(Cc3cc(CN4CCN(C5CCC5)CC4)ccc3OC)c12 [Compound 130, N7-butyl-1-({5-[(4-cyclobutylpiperazin-1-yl)methyl]-2-methoxy-phenyl}methyl)-1H-pyrazolo[4,3-d]pyrimidine-5,7-diamine]
6.95	7.07	CCCCNc1nc(N)nc2cnn(Cc3cc(CN4CCCN(C)CC4)ccc3OC)c12 [Compound 131, N7-butyl-1-({2-methoxy-5-[(4-methyl-1,4-diazepan-1-yl)methyl]phenyl}methyl)-1H-pyrazolo[4,3-d] pyrimidine-5,7-diamine]
6.73	7.96	CCCCNc1nc(N)nc2cnn(Cc3cc(CNC)ccc3OC)c12 [Compound 132, N7-butyl-1-(2-methoxy-5-((methylamino)methyl)benzyl)-1H-pyrazolo[4,3-d]pyrimidine-5,7-diamine]
